Assay results taken from patent publication US11034692B1 (Genentech, Inc., priority 2017, dated 2021).

Each molecule was assayed against HPK1 (Homo sapiens, UniProt Q92918) (assay: HPK1 Lantha Binding Assay ("Lanth")). Conditions: Table B1-1, read-out: HPK1 Ki (μM) (Lanth).
Outline: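 Compounds in an 11-point 5-fold series were preincubated 1 h at 23 C with 2 nM kinase plus 2 nM Eu-anti-GST antibody. Then 15 nM Tracer222 was added for another hour, and time-resolved FRET was read at 665/615 nm. Ki values come from a Morrison tight-binding model that uses the tracer Kd.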

Chain of HPK1 (Q92918 whole entry, looked up): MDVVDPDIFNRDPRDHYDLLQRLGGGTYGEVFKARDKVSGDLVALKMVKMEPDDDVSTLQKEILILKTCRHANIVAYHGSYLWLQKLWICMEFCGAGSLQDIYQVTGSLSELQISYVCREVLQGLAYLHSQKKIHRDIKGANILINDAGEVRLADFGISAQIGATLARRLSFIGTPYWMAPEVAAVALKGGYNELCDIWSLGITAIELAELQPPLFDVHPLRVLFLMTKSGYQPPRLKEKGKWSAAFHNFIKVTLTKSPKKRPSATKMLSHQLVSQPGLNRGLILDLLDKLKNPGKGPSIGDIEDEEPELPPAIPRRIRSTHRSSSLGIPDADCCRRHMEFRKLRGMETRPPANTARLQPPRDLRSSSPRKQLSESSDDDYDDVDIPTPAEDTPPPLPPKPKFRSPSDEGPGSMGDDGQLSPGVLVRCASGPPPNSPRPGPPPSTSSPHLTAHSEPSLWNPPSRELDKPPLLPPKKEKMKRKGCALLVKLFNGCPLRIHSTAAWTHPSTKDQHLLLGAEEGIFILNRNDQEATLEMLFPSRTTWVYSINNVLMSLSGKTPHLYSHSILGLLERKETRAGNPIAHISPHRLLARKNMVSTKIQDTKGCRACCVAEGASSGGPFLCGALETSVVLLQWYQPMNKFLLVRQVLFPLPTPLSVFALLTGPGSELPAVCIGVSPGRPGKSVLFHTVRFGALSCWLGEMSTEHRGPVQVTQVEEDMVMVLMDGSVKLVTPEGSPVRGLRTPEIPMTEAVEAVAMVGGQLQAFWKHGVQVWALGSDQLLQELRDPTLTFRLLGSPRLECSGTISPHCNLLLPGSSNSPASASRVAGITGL

Question: Which Ki does the source give for `CCc1ccncc1-c1cc2cc(Nc3cc(C(O)CC)ccn3)ncc2c(N)n1` (racemic) [Compound 82, (±)-1-{2-[8-Amino-6-(4-ethylpyridin-3-yl)-[2,7]naphthyridin-3-ylamino]-pyridin-4-yl}propan-1-ol] here?
Answer: 0.4 nM

Question: For `N#Cc1ccccc1-c1cc2cc(NC(=O)[C@H]3C[C@@H]3C#N)ncc2c(N)n1` (racemic) [Compound 224, (+/−)-trans-N-(8-amino-6-(2-cyanophenyl)-2,7-naphthyridin-3-yl)-2-cyanocyclopropanecarboxamide], which Ki is on record?
Answer: 15.2 nM

Question: Which Ki does the source give for `CNC(=O)c1c(C)c(-c2cc3cc(NC(=O)[C@H]4C[C@@H]4C#N)ncc3c(N)n2)c(C)n1C` (racemic) [Compound 180, (±)-trans-4-[1-amino-6-[[trans-2-cyanocyclopropanecarbonyl]amino]-2,7-naphthyridin-3-yl]-N,1,3,5-tetramethyl-pyrrole-2-carboxamide] here?
Answer: 44 nM

Question: `CNC(=O)c1ccc(-c2cc3cc(NC(=O)[C@@H]4C[C@@H]4F)ncc3c(N)n2)c(C)c1` (racemic) [Compound 49, 4-(1-amino-6-((cis)-2-fluorocyclopropanecarboxamido)-2,7-naphthyridin-3-yl)-N,3-dimethylbenzamide] was tested. Which Ki did it give?
Answer: 6.82 nM

Question: Which Ki does the source give for `Cc1ccncc1-c1cc2cc(NC(=O)[C@H]3C[C@@H]3C(=O)N(C)C)ncc2c(N)n1` (racemic) [Compound 138, (±)-trans-N1-(8-amino-6-(4-methylpyridin-3-yl)-2,7-naphthyridin-3-yl)-N2,N2-dimethylcyclopropane-1,2-dicarboxamide] here?
Answer: 32 nM

Question: With `CCc1ccncc1-c1cc2cc(NC(=O)NC(C)C(N)=O)ncc2c(N)n1` (racemic) [Compound 34, 2-[[8-amino-6-(4-ethyl-3-pyridyl)-2,7-naphthyridin-3-yl]carbamoylamino]propanamide] as the molecule, how does the Ki read?
Answer: 34 nM

Question: With `Cc1ccncc1-c1cc2cc(NC(=O)[C@@H]3C[C@H]3C#N)ncc2c(N)n1` (racemic) [Compound 43, trans-N-(8-amino-6-(4-methylpyridin-3-yl)-2,7-naphthyridin-3-yl)-2-cyanocyclopropanecarboxamide] as the molecule, how does the Ki read?
Answer: 2.05 nM

Question: How did the Ki turn out when `CNC(=O)c1cc(C)c(-c2cc3cc(NC(=O)[C@H]4C[C@@H]4c4cnn(C)c4)ncc3c(N)n2)cn1` (racemic) [Compound 346, (±)-5-(1-amino-6-((trans)-2-(1-methyl-1H-pyrazol-4-yl)cyclopropane-1-carboxamido)-2,7-naphthyridin-3-yl)-N,4-dimethylpicolinamide] was run?
Answer: 2.44 nM

Question: How did the Ki turn out when `Cc1ccncc1-c1cc2cc(NC(=O)[C@@H]3C[C@H]3c3cccnc3)ncc2c(N)n1` (racemic) [Compound 131, (±)-trans-N-[8-amino-6-(4-methyl-3-pyridyl)-2,7-naphthyridin-3-yl]-2-(3-pyridyl)cyclopropane carboxamide] was run?
Answer: 0.31 nM

Question: How did the Ki turn out when `Cc1ccncc1-c1cc2cc(Nc3cnn(C(C)CO)c3)ncc2c(N)n1` (racemic) [Compound 213, (+/−)-2-(4-(8-amino-6-(4-methylpyridin-3-yl)-2,7-naphthyridin-3-ylamino)-1H-pyrazol-1-yl)propan-1-ol] was run?
Answer: 0.957 nM

Question: For `COCc1ccncc1-c1cc2cc(NC(=O)[C@H]3C[C@@H]3C#N)ncc2c(N)n1` (racemic) [Compound 228, (+/−)-trans-N-(8-amino-6-(4-(methoxymethyl)pyridin-3-yl)-2,7-naphthyridin-3-yl)-2-cyanocyclopropanecarboxamide], which Ki is on record?
Answer: 11 nM

Question: Which Ki does the source give for `N#CCc1ccncc1-c1cc2cc(NC(=O)[C@H]3C[C@@H]3C#N)ncc2c(N)n1` (racemic) [Compound 227, (+/−)-trans-N-(8-amino-6-(4-(cyanomethyl)pyridin-3-yl)-2,7-naphthyridin-3-yl)-2-cyanocyclopropanecarboxamide] here?
Answer: 38.7 nM

Question: `Cc1ccc(O)cc1-c1cc2cc(NC(=O)[C@H]3C[C@@H]3c3cnn(C)c3)ncc2c(N)n1` (racemic) [Compound 268, (+/−)-trans-N-[8-amino-6-(5-hydroxy-2-methylphenyl)-2,7-naphthyridin-3-yl]-2-(1-methyl-1H-pyrazol-4-yl)cyclopropane-1-carboxamide] was tested. Which Ki did it give?
Answer: 0.147 nM

Question: For `CC(=O)N1CCC([C@@H]2C[C@H]2C(=O)Nc2cc3cc(-c4cnccc4C)nc(N)c3cn2)CC1` (racemic) [Compound 166, (±)-trans-2-(1-acetylpiperidin-4-yl)-N-(8-amino-6-(4-methylpyridin-3-yl)-2,7-naphthyridin-3-yl)cyclopropanecarboxamide], which Ki is on record?
Answer: 1.5 nM

Question: `CC(C)c1ccncc1-c1cc2cc(NC(=O)[C@H]3C[C@@H]3C#N)ncc2c(N)n1` (racemic) [Compound 50, trans-N-(8-amino-6-(4-isopropylpyridin-3-yl)-2,7-naphthyridin-3-yl)-2-cyanocyclopropanecarboxamide] was tested. Which Ki did it give?
Answer: 5.9 nM

Question: How did the Ki turn out when `N#C[C@H]1C[C@@H]1C(=O)Nc1cc2cc(-c3cnccc3CCO)nc(N)c2cn1` (racemic) [Compound 191, (±)-trans-N-(8-amino-6-(4-(2-hydroxyethyl)pyridin-3-yl)-2,7-naphthyridin-3-yl)-2-cyanocyclopropanecarboxamide] was run?
Answer: 2.7 nM

Question: `Cc1ccncc1-c1nc(N)c2cnc(NC(=O)[C@@H]3C[C@H]3CC#N)cc2c1C` (racemic) [Compound 205, (+/−)-trans-N-(8-amino-5-methyl-6-(4-methylpyridin-3-yl)-2,7-naphthyridin-3-yl)-2-(cyanomethyl)cyclopropanecarboxamide] was tested. Which Ki did it give?
Answer: 0.0881 nM

Question: `CNC(=O)c1cncc(-c2cc3cc(NC(=O)[C@@H]4C[C@@H]4F)ncc3c(N)n2)c1C` (racemic) [Compound 226, cis-5-(1-amino-6-(-2-fluorocyclopropanecarboxamido)-2,7-naphthyridin-3-yl)-N,4-dimethylnicotinamide] was tested. Which Ki did it give?
Answer: 58.6 nM

Question: With `Cc1ccncc1-c1cc2cc(NC(=O)Nc3cnn(C(C)C#N)c3)ncc2c(N)n1` (racemic) [Compound 178, 1-[8-amino-6-(4-methyl-3-pyridyl)-2,7-naphthyridin-3-yl]-3-[1-(1-cyanoethyl)pyrazol-4-yl]urea] as the molecule, how does the Ki read?
Answer: 0.25 nM

Question: How did the Ki turn out when `Cc1c(-c2cc3cc(NC(=O)[C@@H]4C[C@@H]4F)ncc3c(N)n2)cnc2nc[nH]c12` (racemic) [Compound 52, (±)-cis-N-(8-amino-6-(7-methyl-1H-imidazo [4,5-b]pyridin-6-yl)-2,7-naphthyridin-3-yl)-2-fluorocyclopropanecarboxamide] was run?
Answer: 2.98 nM

Same assay, conditions: Table B1-2, read-out: HPK1 Ki, L = Lanth

Question: `Cc1cccc(CC#N)c1-c1cc2cc(NC(=O)[C@H]3C[C@@H]3c3cnn(C)c3)ncc2c(N)n1` (racemic) [Compound 382, (+/−)-trans-N-(8-amino-6-(2-(cyanomethyl)-6-methylphenyl)-2,7-naphthyridin-3-yl)-2-(1-methyl-1H-pyrazol-4-yl)cyclopropane-1-carboxamide] was tested. Which Ki did it give?
Answer: 14 nM

Question: `COC(=O)c1cc(C)c(-c2cc3cc(NC(=O)[C@H]4C[C@@H]4c4cnn(C)c4)ncc3c(N)n2)cn1` (single isomer, unassigned) [Compound 402] was tested. Which Ki did it give?
Answer: 0.26 nM

Question: Which Ki does the source give for `Cc1ccnc(Cc2ccccc2)c1-c1cc2cc(NC(=O)[C@H]3C[C@@H]3c3cnn(C)c3)ncc2c(N)n1` (racemic) [Compound 427, (+/−)-trans-N-(8-amino-6-(2-benzyl-4-methylpyridin-3-yl)-2,7-naphthyridin-3-yl)-2-(1-methyl-1H-pyrazol-4-yl)cyclopropane-1-carboxamide] here?
Answer: 0.78 nM

Question: With `Cc1cc(N2CCC2=O)ncc1-c1cc2cc(NC(=O)[C@H]3C[C@@H]3c3cnn(C)c3)ncc2c(N)n1` (single isomer, unassigned) [Compound 400] as the molecule, how does the Ki read?
Answer: 1.2 nM
